Assay results as given in US10946057B2, “Antiseptics” (INSIGHT HEALTH LIMITED, priority 2007, dated 2021).
Values after ≈ are worked out from the molar mass of the structure shown. Where two headings read alike, the source gives them in different places.

Assays:
[1] = tested on: S. epidermidis RP62A (planktonic cells, suspension); test: MIC/MBC by microbroth dilution assay, S. epidermidis in suspension; format: cell-based; conditions: Staphylococcus epidermidis, read-out: Minimum inhibitory concentration (MIC), planktonic cells
Experimental: Test inocula for the suspension assay were prepared by suspending 10 colonies of S. epidermidis RP62A from an overnight culture on MHA into sterile PBS. The bacterial concentration was adjusted to 1×10*8 cfu/mL by diluting the culture with sterile PBS and measuring the OD at 570 nm (calibration curve for S. epidermidis cfu against OD at 570 nm were performed prior to the study, data not shown). The suspension was further diluted with MHB to obtain inocula containing 1×10*7 cfu/mL for synergy assays or 1×10*6 cfu/ml for testing antimicrobial activity of CHG and oils alone in suspension.
(§1) Aqueous chlorhexidine digluconate (CHG), tea tree oil (TTO), eucalyptus oil (EO) and thymol (all from Sigma-Aldrich) were diluted with MHB to obtain stock solution of 512 mg/mL for essential oils and 512 μg/mL for CHG. Five percent (v/v) dimethylsulphoxide (DMSO) (Sigma-Aldrich) was added to the stocks of essential oils to enhance their solubility of the oils in suspension.
Minimum inhibitory concentration (MIC) and minimum bacterial concentration (MBC) of aqueous CHG, TTO, EO and thymol were performed by microbroth dilution assay (NCCLS, 1997). […] Minimum bactericidal concentrations were determined by removing the suspension from the clear wells into MHA, spread with a sterile spreader and incubating the plates in air at 37° C. for 18-20 hours. […]

[2] = tested on: S. epidermidis RP62A biofilm; test: Antimicrobial activity against S. epidermidis biofilm by ATP bioluminescence; format: cell-based, Staphylococcus epidermidis; conditions: for MBC/biofilm eradicating concentration / Minimum inhibitory concentration (MIC), bacteria growing in biofilm: S. epidermidis RP62A biofilm
Experimental: S. epidermidis RP62A was used for its ability to produce a biofilm (Sadovskaya, et al., 2005). Bacteria were stored on beads (MicroBank, Pro-Lab Diagnostics, Cheshire, UK) at −70° C. until required. The ability of the strain to produce slime was confirmed by culturing the bacteria on Congo Red agar (Freeman, et al., 1989). For producing the microbial biofilms, the strains were first inoculated onto Muller-Hinton agar (MHA) (Oxoid, Basingstoke, UK) and incubated in air at 37° C. for 18-20 hours. Ten colonies from the culture plate were suspended into sterile phosphate buffered saline (PBS, Sigma, Dorset, UK). The bacterial concentration was adjusted to 1×10*8 cfu/mL by diluting the culture with sterile PBS and measuring the OD at 570 nm (calibration curve for S. epidermidis cfu against OD at 570 nm were performed prior to the study, data not shown). The suspension was further diluted with Muller-Hinton broth (MHB) supplemented with 2% (w/v) glucose (Fisher Scientific, Leicester, UK) to obtain inocula containing 1×10*5 cfu/mL. Two hundred μL of the bacterial suspension were aliquoted into wells of white walled, clear bottom, tissue culture treated 96-well microtitre plate (Corning Incorporated, NY, USA). The wells in the last column of the plate served as a control, and contained 200 μL of MHB supplemented with 2% (w/v) glucose only. Microtitre plates were incubated in air at 37° C. for 48 hours.
as §1
Prior to antimicrobial susceptibility studies, a standard curve for relative light units (RLU) versus bacterial cfu/mL was performed. S. epidermidis was grown with MHB supplemented with 2% (w/v) glucose in a 96-well microtitre plate as described previously to obtain bacterial biofilms. The wells of the microtitre plate with established bacterial biofilms were washed three times with sterile PBS and biofilms were removed from the wells by using “a scrape and wash method” (Adams, 2006). In brief, each well was filled with 200 μL of sterile PBS and, with a sterile pipette tip, the wall of each well was scraped approximately 10 times and the bottom scraped horizontally, vertically and cross-wise in each direction 10 times. The suspension was removed and collected into a sterile Eppendorf tube and the procedure repeated a further 4 times to obtain a final volume of 1000 μL per tube. The procedure was performed on three wells separately. The suspensions were mixed by vortexing and serial dilutions were performed in sterile PBS. 100 μL of the neat suspension and 10^−1 to 10^−5 dilutions were aliquoted onto wells of a white-walled, clear bottom microtitre plate. 100 microlitres of bactolyse were added into each well. The plate was then floated on a water bath sonicator and the plate was sonicated at 50 Hz for 30 minutes to lyse the cells and release the bacterial ATP. Twenty μL of luciferase where added into each well and luminescence read by a luminometer. The bacterial cfu in each suspension and dilution were established by the drop count method. The results were expressed as cfu against RLU.
Microtitre plates containing S. epidermidis RP62A biofilm were washed once with sterile PBS to remove any unbound bacteria. Antimicrobial agents were diluted with MHB to obtain CHG concentrations of 128 μg/mL to 0.25 μg/mL and essential oil concentrations of 256 mg/mL to 0.5 mg/mL. Two hundred and fifty microlitres of the antimicrobial compound were added in the wells in triplicate. Columns 11 and 12 served as controls with biofilm with saline alone and clear wells with MHB alone without bacterial biofilm.

[3] = Skin permeation of CHG with EO and IPA, Franz diffusion cells, receptor compartment by HPLC; conditions: 24 h permeation study, skin from two donors; LOD 0.0157 μg/mL
Experimental: The full thickness human skin was frozen on the day of excision and stored at −70° C. until required.
Skin permeation studies were performed with vertical Franz diffusion cells. The receptor compartment was filled with 29 mL of PBS and maintained at 37° C. by a circulating water jacket and agitated by stirring with a magnetic bar. Skin samples were thawed in PBS at room temperature, dried with an absorbent towel and mounted onto Franz diffusion cells with the stratum corneum (SC) uppermost facing the donor compartment. The surface area exposed to the test compound was 3.14 cm2 (2 cm in diameter). All entrapped air was removed between the skin and receptor fluid and the skin was left to equilibrate for 30 min to reach the skin surface temperature of 32° C.
Twenty percent (w/v) aqueous CHG was diluted with distilled water, IPA and EO to obtain the final concentrations of 2% (w/v) CHG in 70% (v/v) IPA and 2% (w/v) CHG with 5%, 10%, 20% and 50% (v/v) EO. Tween 80 [0.1% (v/v)] was added to the test solutions to enhance EO solubility in the vehicle. One millilitre of test solution was spread over the skin surface in the donor compartment and the compartment was sealed with a moisture resistant film to prevent evaporation. […] All samples were filtered through a 0.45 μm nylon filter (Kinesis, UK) and analysed by HPLC. […]

[4] = CHG penetration profile studies with EO and IPA (CHG extracted from skin sections); format: in vitro ADME, human
Experimental: Following exposure, the skin samples were removed, washed with PBS and dried with an absorbent towel. The skin samples were immediately sprayed with a cryospray (Bright Instruments) and frozen at -20° C. Punch biopsies (7 mm in diameter) were cut from each frozen sample in triplicate and placed onto a cork disc in embedding compound (Bright Instruments, Cambs, UK), The frozen samples were sectioned horizontally with a microtome (Bright Instruments) into 20 μm sections (from the surface to a depth of 600 μm) and 30 μm sections (from depths of 600 to 1500 μm). Each section was placed into an Eppendorf tube and the total weight of each skin sample determined. Chlorhexidine was extracted from the skin by aliquoting 1 mL of mobile phase solution (75% methanol, 25% distilled water, 0.1% sodium heptane sulphonate, 0.1% diethylamine, pH 4) into skin samples and incubated in water bath at 60° C. for 1 h. The samples were mixed by vortexing and filtered prior to analysis by HPLC. The results were calculated as μg of CHG per mg of skin. Control skin (skin without treatment) was analysed parallel to the test samples. The assay was performed in triplicate. The data obtained were analysed by a student t-test using […] software (Graph pad software version 3.06) with a p<0.05 level of significance.

[5] = Skin permeation study CHG + eucalyptus oil, Franz diffusion cells, receptor fluid by HPLC; format: in vitro ADME; conditions: 24 hour skin permeation, full thickness human skin, Franz cell
Experimental: Prior to the study full ethical committee approval and written consent from patients donating the tissue was obtained. […] Vertical diffusion cells (Franz diffusion cells), with an average diffusion surface area of 1.65 cm^2, were used for skin permeation studies. Phosphate buffered saline (PBS) was used as a receptor fluid, and left overnight in a receptor compartment (approximately volume 29 mls) with circulating water jacket set at 37° C. On the day of investigation the excised skin was thawed in PBS and cut into size to fit Franz diffusion cells (2.9 cm circle across). The skin samples were mounted into Franz diffusion cells and left for 1 hour in the diffusion cells to equilibrate with the receptor fluid prior to commencing the study. […] One millilitre of CHG solution of CHG/eucalyptus oil suspension was aliquoted in triplicate on the surface of the excised human skin on the donor compartment in Franz diffusion cells. The temperature was maintained constant by a circulating water jacket set at 37° C. and the receptor fluid was agitated continuously by magnetic stirrer bar. […] The samples were filtered and analysed by HPLC. Chlorhexidine digluconate was analysed quantitatively by HPLC. […] The samples were filtered and analysed with HPLC (Agilent 1100) with ODS-2 Hypersil column (5μ particle size) (Thermo Electron Corporation, UK) with a flow rate of 1.2 mls/min, detector wavelength 254 nm.

Row | MIC ([1]; oil alone) [mg/L] | Minimum inhibitory concentration (MIC), bacteria growing in biofilm ([2]; oil alone) [mg/L] | MIC lower against biofilms compared to planktonic cells ([2]; biofilm vs planktonic) [fold] | Compound | MBC/biofilm eradicating concentration [2] [mg/L] | Chlorhexidine in the receptor compartment [3] | MIC ([1]; agent alone) [mg/L] | Minimum inhibitory concentration (MIC), bacteria growing in biofilm ([2]; agent alone) [mg/L] | MIC higher against bacteria growing in biofilm compared to planktonic cells ([2]; biofilm vs planktonic) [fold] | Mean concentration of CHG (and SEM) within the tissues ([4]; 2 min exposure, 300 to 1500 μm depths) [μg/mg tissue] | Mean CHG concentration (and SEM) ([4]; 30 min exposure, depths of 300 μm to 1500 μm) | CHG concentration extracted from the deeper layers of the skin ([4]; 24 h exposure, 300 to 1500 μm depths) | CHG concentration extracted from the top 100 μm layer ([4]; 24 h exposure, top 100 μm) [μg per mg tissue] | Levels of CHG in the receptor fluid [5]
1 | 4000 (≈ 26.6 mM) | 1000 (≈ 6.66 mM) | 2 | Cc1ccc(C(C)C)c(O)c1 [Thymol, thymol] | 2000 (≈ 13.3 mM) |  |  |  |  |  |  |  |  | 
2 |  |  |  | [H]/N=C(\N/C(=N/[H])NCCCCCCNC(=N)NC(=N)Nc1ccc(Cl)cc1)Nc1ccc(Cl)cc1 [CHG, chlorhexidine digluconate] | 32 | not detected | 2 | 8 | 2 | 0.0048 | 0.0021 (±0.0004) μg/mg tissue | 0.581 (±0.0466) μg per mg tissue | 7.880 | did not show detectable levels
